From patent publication US9776972B2, “Pyrazole derivatives as arginine methyltransferase inhibitors and uses thereof” (priority 2013, dated 2017)
Counter-ions that a name gives are not always drawn.

Tests used:
human PRMT6 = target: T1, human PRMT6 (Homo sapiens, UniProt Q96LA8); experiment: PRMT6 Biochemical Assay (3H-SAM Flashplate, peptide substrate)
T1 construct: Flag-PRMT6-His; made in house; host or cells: HEK 293F cells (BacMam baculovirus)
Text: (§1) S-adenosylmethionine (SAM), S-adenosylhomocysteine (SAH), bicine, Tween20, dimethylsulfoxide (DMSO), bovine skin gelatin (BSG), sodium butyrate and Tris(2-carboxyethyl)phosphine hydrochloride solution (TCEP) were purchased from Sigma-Aldrich at the highest level of purity possible. ^3H-SAM was purchase from American Radiolabeled Chemicals with a specific activity of 80 Ci/mmol. 384-well streptavidin Flashplates were purchased from PerkinElmer.
Peptide representative of human histone H4 residues 36-50 was synthesized with an N-terminal linker-affinity tag motif and a C-terminal amide cap by 21st Century Biochemicals.
The amplified gene was subcloned into pFastBacMam (Viva Biotech).
Recombinant baculovirus were generated according to Bac-to-Bac kit instructions (Life Technologies). […] Infections were carried out at 37° C. for 48 hours, harvested by centrifugation, and stored at −80° C. for purification.
Column was washed with 20 mM imidazole in the same buffer and Flag-PRMT6-His was eluted with 150 mM imidazole. […] Flag-PRMT6-His was eluted with 200 ug/ml FLAG peptide in the same buffer. Pooled fractions were dialysed in 20 mM Tris, 150 mM NaCl, 10% glycerol and 5 mM β-mercaptoethanol, pH 7.8.
General Procedure for PRMT6 Enzyme Assays on Peptide Substrates.
(§2) The assays were all performed in a buffer consisting of 20 mM Bicine (pH=7.6), 1 mM TCEP, 0.005% BSG, and 0.002% Tween 20, prepared on the day of use. […] DMSO (1 ul) was added to Columns 11, 12, 23, 24, rows A-H for the maximum signal control and 1 ul of SAH, a known product and inhibitor of PRMT6, was added to columns 11, 12, 23, 24, rows I-P for the minimum signal control. A cocktail (40 ul) containing the PRMT6 enzyme was added by Multidrop Combi (Thermo-Fisher). The compounds were allowed to incubate with PRMT6 for 30 min at room temperature, then a cocktail (10 ul) containing SAM and peptide was added to initiate the reaction (final volume=51 ul). […] The assays were stopped by the addition of non-radiolabeled SAM (10 ul) to a final concentration of 400 uM, which dilutes the ^3H-SAM to a level where its incorporation into the peptide substrate is no longer detectable. 50 ul of the reaction in the 384-well polypropylene plate was then transferred to a 384-well Flashplate and the biotinylated peptides were allowed to bind to the streptavidin surface for at least 1 hour before being washed once with 0.1% Tween20 in a Biotek ELx405 plate washer. The plates were then read in a PerkinElmer TopCount plate reader to measure the quantity of ^3H-labeled peptide bound to the Flashplate surface, measured as disintegrations per minute (dpm) or alternatively, referred to as counts per minute (cpm).
(§3) Where dpm=disintegrations per minute, cmpd=signal in assay well, and min and max are the respective minimum and maximum signal controls.
(§4) Where top and bottom are the normally allowed to float, but may be fixed at 100 or 0 respectively in a 3-parameter fit. The Hill Coefficient normally allowed to float but may also be fixed at 1 in a 3-parameter fit. Y is the % inhibition and X is the compound concentration.

human PRMT8 = human PRMT8 (Homo sapiens, UniProt Q9NR22); experiment: PRMT8 Biochemical Assay (3H-SAM Flashplate, peptide substrate); conditions: single experiment or average of multiple experiments
Text: as §1, with “isopropyl-β-D-thiogalactopyranoside (IPTG),” for “sodium butyrate”
Peptide representative of human histone H4 residues 31-45 was synthesized with an N-terminal linker-affinity tag motif and a C-terminal amide cap by 21st Century Biochemicals.
E. coli (BL21(DE3) Gold, Stratagene) made competent by the CaCl2 method were transformed with the PRMT8 construct and ampicillin selection. Protein over-expression was accomplished by growing the PRMT8 expressing E. coli clone and inducing expression with 0.3 mM IPTG at 16° C. The culture was grown for 12 hours, harvested by centrifugation, and stored at −80° C. for purification.
GST-tagged PRMT8 was eluted with 50 mM Tris, 2 mM glutathione, pH 7.8. Pooled fractions were cleaved by thrombin (10 U) and dialysed in buffer A. GST was removed by reloading the cleaved protein sample onto glutathione sepharose column and PRMT8 was collected in the flow-through fractions. PRMT8 was purified further by ceramic hydroxyapatite chromatography. The column was washed with 50 mM phosphate buffer, 100 mM NaCl, 5% glycerol, 5 mM β-mercaptoethanol, pH 7.8 and PRMT8 was eluted by 100 mM phosphate in the same buffer. Protein was concentrated and buffer was exchanged to 50 mM Tris, 300 mM NaCl, 10% glycerol, 5 mM β-mercaptoethanol, pH 7.8 by ultrafiltration.
General Procedure for PRMT8 Enzyme Assays on Peptide Substrates.
as §2, with “of PRMT8,” for “of PRMT6,”, “the PRMT8” for “the PRMT6”, “with PRMT8” for “with PRMT6”, “containing ^3H-SAM” for “containing SAM”
as §3, §4

[1] = Biochemical IC50 PRMT6, single experiment or average of multiple experiments

human PRMT8, sequence (Q9NR22 whole entry): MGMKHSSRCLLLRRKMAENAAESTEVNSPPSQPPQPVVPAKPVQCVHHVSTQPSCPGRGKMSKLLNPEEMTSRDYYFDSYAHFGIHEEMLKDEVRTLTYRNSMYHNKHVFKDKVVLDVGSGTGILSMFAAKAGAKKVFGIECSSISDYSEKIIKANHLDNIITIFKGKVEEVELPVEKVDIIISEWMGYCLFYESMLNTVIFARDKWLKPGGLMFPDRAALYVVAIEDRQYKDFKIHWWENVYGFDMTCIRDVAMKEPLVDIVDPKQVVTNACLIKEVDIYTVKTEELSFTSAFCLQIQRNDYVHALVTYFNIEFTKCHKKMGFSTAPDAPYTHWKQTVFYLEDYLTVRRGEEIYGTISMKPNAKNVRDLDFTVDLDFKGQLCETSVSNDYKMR
T1 sequence (Q96LA8 with tags, fused parts or gaps): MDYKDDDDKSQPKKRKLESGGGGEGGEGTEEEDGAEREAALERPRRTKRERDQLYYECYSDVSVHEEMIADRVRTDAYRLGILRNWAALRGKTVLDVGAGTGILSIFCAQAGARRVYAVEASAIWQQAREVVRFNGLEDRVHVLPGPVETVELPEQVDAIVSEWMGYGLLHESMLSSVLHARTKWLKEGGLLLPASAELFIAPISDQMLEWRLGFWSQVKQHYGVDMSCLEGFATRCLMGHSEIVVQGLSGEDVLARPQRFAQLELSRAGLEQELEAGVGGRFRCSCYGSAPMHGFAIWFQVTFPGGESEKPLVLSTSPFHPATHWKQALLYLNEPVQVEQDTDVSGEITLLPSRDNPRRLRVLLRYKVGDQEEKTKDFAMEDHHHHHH

Row | SMILES | IC50 (human PRMT6; [1]) | IC50 (human PRMT8) | IC50 (human PRMT6; Biochemical IC50 PRMT6)
1 | COCCn1ncc(CN(C)CCN)c1-c1ccc(F)cc1 [Compound 6] | 0.312 µM |  | 
2 | CCn1ncc(CN(C)CCNC)c1-c1ccc(F)cc1 [Compound 7] | 0.0383 µM | 3.24 µM | 
3 | CCn1cc(CN(C)CCNC)c(-c2ccc(F)cc2)n1 [Compound 8] | 0.287 µM | 7.2 µM | 
4 | CC(C)Oc1ccc(-c2n[nH]cc2CN(C)CCN)cc1F [Compound 97] | 0.00735 µM | 0.089 µM | 
5 | CN(CCN)Cc1c[nH]nc1-c1ccc(F)cc1F [Compound 99] | 0.0279 µM | 2.2 µM | 
6 | CN(CCN)Cc1n[nH]cc1-c1ccc(C#N)cc1 [Compound 100] | 0.0112 µM | 0.29 µM | 
7 | CC(C)c1ccc(-c2c[nH]nc2CN(C)CCN)cc1 [Compound 101] | 0.136 µM | 0.57 µM | 
8 | CN(CCN)Cc1n[nH]cc1-c1ccc(C(F)(F)F)cc1 [Compound 103] | 0.017 µM | 0.366 µM | 
9 | CN(CCN)Cc1n[nH]cc1-c1ccc(OC(F)(F)F)cc1 [Compound 105] | 0.0556 µM | 0.13 µM | 
10 | COc1ccc(-c2n[nH]cc2CN(C)CCN)c(F)c1 [Compound 107] | 0.015 µM | 0.912 µM | 
11 | Cc1ccc(-c2n[nH]cc2CN(C)CCN)c(F)c1 [Compound 108] | 0.00949 µM | 1 µM | 
12 | Cc1cc(C#N)ccc1-c1n[nH]cc1CN(C)CCN [Compound 110] | 0.0165 µM | 0.54 µM | 
13 | CN(CCN)Cc1c[nH]nc1-c1cc(F)cc(F)c1 [Compound 111] | 0.0118 µM | 0.799 µM | 
14 | CN(CCN)Cc1c[nH]nc1-c1cc(F)cc(Cl)c1 [Compound 121] | 0.00748 µM | 0.218 µM | 
15 | CN(CCN)Cc1c[nH]nc1-c1cccc(Cl)c1F [Compound 123] | 0.0171 µM | 0.532 µM | 
16 | COc1ccc(-c2n[nH]cc2CN(C)CCN)cc1Cl [Compound 125] | 0.00665 µM | 0.308 µM | 
17 | COc1cc(Cl)cc(-c2n[nH]cc2CN(C)CCN)c1 [Compound 127] | 0.0141 µM | 0.548 µM | 
18 | CNCCN(C)Cc1cnn(C)c1-c1ccc(OC(C)C)cc1 [Compound 244, hydrochloride] | 0.0451 µM |  | < 0.1 µM

Second part, led by results:

Row | IC50 (human PRMT6; [1]) | IC50 (human PRMT8) | SMILES | IC50 (human PRMT6; Biochemical IC50 PRMT6)
19 | 0.00709 µM | 0.171 µM | CN(CCN)Cc1c[nH]nc1-c1ccc(OCC(F)(F)F)cc1 [Compound 96] | 
20 | 0.0154 µM | 0.156 µM | CN(CCN)Cc1c[nH]nc1-c1ccc(C2CCOCC2)cc1 [Compound 98] | 
21 | 0.00902 µM | 0.311 µM | CN(CCN)Cc1n[nH]cc1-c1ccc(Cl)cc1 [Compound 102] | 
22 | 0.0453 µM | 0.301 µM | CN(CCN)Cc1n[nH]cc1-c1ccc(C2CC2)cc1 [Compound 104] | 
23 | 0.217 µM | 2.08 µM | COc1ccccc1-c1n[nH]cc1CN(C)CCN [Compound 109] | 
24 | 0.0847 µM | 0.335 µM | CC(=O)c1cccc(-c2n[nH]cc2CN(C)CCN)c1 [Compound 112] | 
25 | 0.0162 µM | 0.0475 µM | CN(CCN)Cc1c[nH]nc1-c1ccc(OC2CC2)cc1 [Compound 114] | 
26 | 0.0254 µM | 1.1 µM | CC(O)c1ccc(-c2n[nH]cc2CN(C)CCN)cc1 (centres unmarked) [Compound 115] | 
27 | 0.0073 µM | 0.124 µM | CN(CCN)Cc1c[nH]nc1-c1ccc(C2CC2)cc1 [Compound 116] | 
28 | 0.00487 µM | 0.0878 µM | CN(CCN)Cc1c[nH]nc1-c1ccc(C(F)(F)F)c(Cl)c1 [Compound 117] | 
29 | 0.00318 µM | 0.136 µM | CN(CCN)Cc1c[nH]nc1-c1ccc(Cl)c(F)c1 [Compound 118] | 
30 | 0.088 µM | 0.336 µM | CN(CCN)Cc1n[nH]cc1-c1ccc(OC2CC2)cc1 [Compound 119] | 
31 | 0.00899 µM | 0.548 µM | CN(CCN)Cc1c[nH]nc1-c1cccc(Cl)c1 [Compound 122] | 
32 | 0.00715 µM | 0.294 µM | CN(CCN)Cc1c[nH]nc1-c1ccc(F)c(Cl)c1 [Compound 124] | 
33 | 0.00494 µM | 0.232 µM | Cc1ccc(-c2n[nH]cc2CN(C)CCN)cc1Cl [Compound 126] | 
